For experiment [1], the target named is T1, FXR ligand binding domain (LBD) (Homo sapiens, UniProt Q96RI1).
T1 construct: made in house
T1 sequence (Q96RI1 262-486 limits assumed): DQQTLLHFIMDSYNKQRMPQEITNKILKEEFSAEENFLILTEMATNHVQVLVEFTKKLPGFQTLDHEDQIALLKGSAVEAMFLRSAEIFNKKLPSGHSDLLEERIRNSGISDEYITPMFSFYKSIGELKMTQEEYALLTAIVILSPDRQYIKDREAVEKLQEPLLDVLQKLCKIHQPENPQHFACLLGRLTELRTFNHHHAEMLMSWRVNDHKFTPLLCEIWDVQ
The experiment can be described thus: AlphaScreen assay: FXR LBD recruitment of coregulator peptide motifs (SRC2-3, SRC1-2). In kind it is biochemical. The procedure: In search of novel ligands for FXR, we used FXR ligand binding domain (LBD) as a bait to screen chemical libraries based on AlphaScreen biochemical assay, which determines the efficacy of small molecules in influencing binding affinity of FXR with coregulator peptides (see e.g., Jin et al., (2013) Nature communications 4, 1937).
The binding of the cofactor peptide motifs to FXR ligand binding domain (LBD) in response to ligands was determined by AlphaScreen assays using a hexahistidine detection kit from Perkins-Elmer. The FXR LBD protein was purified as described previously (see e.g., Jin et al., (2013) Nature communications 4, 1937). The experiments were conducted with approximately 20-40 nM receptor LBD and 20 nM biotinylated cofactor peptides in the presence of 5 μg/ml donor and acceptor beads in a buffer containing 50 mM MOPS, 50 mM NaF, 0.05 mM CHAPS, and 0.1 mg/ml bovine serum albumin, all adjusted to a pH of 7.4.

In experiment [2] the target is T2, full-length FXR (Homo sapiens, UniProt Q96RI1).
T2 construct: The cells were co-transfected with plasmids encoding full-length FXR and the cognate luciferase reporter EcRE-Luc; expressed in transfected cells; host or cells: COS-7
T2 sequence (Q96RI1 1-486): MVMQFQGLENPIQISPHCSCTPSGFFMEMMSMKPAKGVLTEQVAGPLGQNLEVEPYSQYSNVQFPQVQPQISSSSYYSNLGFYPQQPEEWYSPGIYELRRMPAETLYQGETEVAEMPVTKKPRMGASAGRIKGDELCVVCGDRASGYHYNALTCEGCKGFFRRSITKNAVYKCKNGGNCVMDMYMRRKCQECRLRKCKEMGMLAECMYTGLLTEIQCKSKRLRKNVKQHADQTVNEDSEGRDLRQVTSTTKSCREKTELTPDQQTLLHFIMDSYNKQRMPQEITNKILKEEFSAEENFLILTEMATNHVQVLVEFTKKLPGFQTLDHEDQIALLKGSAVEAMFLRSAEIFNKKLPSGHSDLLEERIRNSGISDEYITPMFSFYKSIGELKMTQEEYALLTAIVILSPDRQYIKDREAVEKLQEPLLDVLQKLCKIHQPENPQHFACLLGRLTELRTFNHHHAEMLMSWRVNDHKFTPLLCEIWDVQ
The experiment in a line: Cell-based FXR transactivation, EcRE luciferase reporter in COS-7 cells. Particulars: for fold induction at 5 µM / Cell-based FXR transactivation Fold changes by 5 μM compound: 5 μM compound; for fold induction at 5 µM / EC50: EcRE luciferase reporter; for Cell-based FXR transactivation Fold changes by 5 μM compound: positive: induction, minus: repression. The procedure:
COS-7 cells were cotransfected with plasmids encoding full length FXR.
For transient transfection assay, COS-7 cells were maintained in DMEM containing 10% fetal bovine serum and were transiently transfected using Lipofectamine 2000 (Invitrogen). Before 24 h of transfection, 24-well plates were plated. The cells were co-transfected with plasmids encoding full-length FXR and the cognate luciferase reporter EcRE-Luc. Ligands were added 5 hours after transfection. Cells were harvested 24 hours later for the luciferase assays according to the manufacturer's instructions (Dual-Luciferase® Reporter Assay System, Promega). Luciferase activities were normalized to renilla activity co-transfected as an internal control.
(A reporter such as luciferase makes a cellular process visible.)

The subject of experiment [3] is human hepatoma HepG2 cells. The experiment can be described thus: MTT cell viability assay, HepG2. In kind it is cell-based. Particulars: 48 h, read-out: Cell viability as a percentage of the cells treated with DMSO, HepG2. The source says:
(§1) The MTT assay is a colorimetric assay for assessing cell metabolic activity. It is widely used in high-throughput screening of antitumor drugs due to its high sensitivity and economical features. In this example, MTT was used to detect the inhibitory effects of compounds on various cancer cell lines. Cancer cells including human colorectal adenocarcinoma HCT15 cells, RA-resistant human colon cancer HCT116 cells, human cervical carcinoma Hela cells, human hepatoma HepG2 cells and human breast cancer MCF7 cells were cultured in DMEM medium containing 10% fetal bovine serum. 20 uM or 40 uM of compounds were administered to treat cells, cell viability is detected by MTT assay and expressed as a percentage of the cells treated with DMSO (Table 4).
Background: Tetrazolium assays rely on reduction of a dye to a coloured formazan, in cell work by metabolically active cells.

Experiment [4] relates to RA-resistant human colon cancer HCT116 cells. The experiment can be described thus: MTT cell viability assay, HCT116. Format: cell-based. The note with it: 48 h, read-out: Cell viability as a percentage of the cells treated with DMSO, HCT116; for viability at 20 µM: HCT-116, 20 uM; for viability at 40 µM: HCT-116, 40 uM.
Text: as §1

In experiment [5] the test system is human cervical carcinoma Hela cells. The experiment can be described thus: MTT cell viability assay, Hela. In kind it is cell-based. Particulars: 48 h, read-out: Cell viability as a percentage of the cells treated with DMSO, Hela.
Text: as §1

Experiment [6] deals with human colorectal adenocarcinoma HCT15 cells. The experiment in a line: MTT cell viability assay, HCT15. Format: cell-based. The note with it: 48 h, read-out: Cell viability as a percentage of the cells treated with DMSO, HCT15; for viability at 20 µM: HCT-15, 20 uM; for viability at 40 µM: HCT-15, 40 uM.
Text: as §1

Experiment [7] concerns human breast cancer MCF7 cells. The experiment can be described thus: MTT cell viability assay, MCF-7. Particulars: 48 h, read-out: Cell viability as a percentage of the cells treated with DMSO, MCF-7. Format: cell-based.
Text: as §1

Experiment [8] concerns db/db mice. The experiment in a line: Hepatic triglyceride, liver histology, serum ALT and ALP in high-fat diet fed db/db mice. Particulars: 10 mg/kg once daily for 10 days. In kind it is in vivo, mouse. The procedure: Liver tissues fixed in 4% paraformaldehyde in example 5 were performed for H&E staining by standard procedures. Liver tissues fixed in 4% paraformaldehyde were embedded in optimum cutting temperature compound (OCT), and cryosectioned. Frozen liver sections were stained with 0.3% oil red O according to standard procedures.
The triglyceride levels in liver tissues from mice treated with compounds were analyzed using Tissue triglyceride assay kit (Applygen, Beijing, China).
Alkaline Phosphatase (ALP) is a marker of cholestasis. Cholestasis can be suspected when there is an elevation of ALP enzymes. In fact, greater than 90% of patients with bile stasis will have an elevated alkaline phosphatase. […] The aminotransferase is used to evaluate the presence of hepatitis and may be elevated in cholestasis or with common bile duct obstruction. In this example, 8-10 week age db/db mice were fed with high-fat diet and treated with 10 mg/kg of compounds once daily for 10 days as in Example 5. The activities of serum ALP and ALT were analyzed using ALP kit and ALT kit, respectively (Nanjing Jiancheng Engineering Institute, China).

Where [9] appears, read: SRC1-2 peptide, Table 1, read-out: EC50 (μM) of FXR binding by AlphaScreen assay recruit SRC1-2.
Setting [10] is: SRC2-3 peptide, Table 1, read-out: EC50 (μM) of FXR binding by AlphaScreen assay recruit SRC2-3.
[11] abbreviates: SRC1-2 peptide, Table 2, read-out: EC50 (μM) of FXR binding by AlphaScreen assay recruit SRC1-2.
Where [12] appears, read: SRC2-3 peptide, Table 2, read-out: EC50 (μM) of FXR binding by AlphaScreen assay recruit SRC2-3.

Nine molecules from patent US20180116993A1, “MODULATORS OF FARNESOID X RECEPTOR AND METHODS FOR THE USE THEREOF” (XIAMEN UNIVERSITY, priority 2015, published 2018) can be followed below.

Where two headings read alike, the source gives them in different places. Marks after values point to notes of the source that are not given here.

For `Nc1cccc(C(=O)OCC23CC4CC(CC(C4)C2)C3)c1` [Tricyclo-[3.3.1.1^3,7]decane-1-methanol, 1-(3-aminobenzoate)], the EC50 (usually the concentration that produces a half-maximal response) in experiment [1] (setting [9]) was < 1 µM; in experiment [1] (setting [10]), < 1 µM; in experiment [2] (Table 1) it was < 1000 nM. For the same molecule, the fold induction (as a rule, the ratio of treated to control signal) at 5 µM in experiment [2] (Table 1) was > 10.
Take `Cc1cc(C(=O)OC2CC3CCC2(C)C3(C)C)ccc1F` (centres unmarked) [XD-1, 1,7,7-trimethyl-bicyclo[2.2.1]-heptan-2-yl 4-fluoro-3-methylbenzoate]: the viability (commonly a per cent measure of how many cells are alive, often set against a control) at 20 µM was 100 ± 2% in experiment [3]; 96 ± 2% in experiment [4]; 100 ± 5% in experiment [5]; 93 ± 2% in experiment [6]; 100 ± 2% in experiment [7]. The viability at 40 µM in experiment [3] came out at 62 ± 7%; in experiment [4], 62 ± 3%; in experiment [5], 70 ± 3%; in experiment [6], 42 ± 3%; in experiment [7] it was 65%. Besides, the EC50 in experiment [1] (setting [11]) lay in the range of 1 to 10 µM; in experiment [1] (setting [12]) it was 1 to 10 µM; in experiment [2] (Table 2), 1000 to 10000 nM. Also, the “Cell-based FXR transactivation Fold changes by 5 μM compound” value in experiment [2] (Table 2) was 5.
As to `Nc1ccc(C(=O)OC2CC3CCC2C3)cc1` (centres unmarked) [XD-22, bicyclo[2.2.1]-heptan-2-yl 4-aminobenzoate], the viability at 20 µM in experiment [3] amounted to 100 ± 3%; in experiment [4] it was 89 ± 1%; in experiment [5], 100 ± 2%; in experiment [6], 100 ± 4%; in experiment [7] it was 100 ± 2%. In addition, the viability at 40 µM in experiment [3] was 100 ± 8%; in experiment [4], 65 ± 4%; in experiment [5] it was 100 ± 4%; in experiment [6] it was 100 ± 4%; in experiment [7] it was 100 ± 1%. The EC50 in experiment [1] (setting [11]) is 1 to 10 µM; in experiment [1] (setting [12]) it was 1 to 10 µM; in experiment [2] (Table 2), > 1000 nM. Further, in experiment [2] (Table 2), the “Cell-based FXR transactivation Fold changes by 5 μM compound” value is 3.
On to `O=C(OC1CCC2CCCCC2C1)c1ccc([N+](=O)[O-])cc1` (centres unmarked) [XD-26, decahydro-naphthalen-2-yl 4-nitrobenzoate], for which the viability at 20 µM in experiment [3] came to 100 ± 2%; in experiment [4], 100 ± 2%; in experiment [5] it was 87%; in experiment [6] it was 86 ± 2%; in experiment [7], 100 ± 2%. For the same molecule, the viability at 40 µM in experiment [3] was determined as 100 ± 2%; in experiment [4] it was 92 ± 2%; in experiment [5] it was 70 ± 2%; in experiment [6], 56 ± 2%; in experiment [7] it was 92 ± 2%. The “Cell-based FXR transactivation Fold changes by 5 μM compound” value in experiment [2] (Table 2) is −2. For the same molecule, the EC50 in experiment [2] (Table 2) was < 1000 nM.
`O=C(OC1CCCCCCC1)C1CCC(O)CC1` (centres unmarked) [XD-19, cyclooctyl 4-hydroxy-cyclohexane-carboxylate]: the “Cell-based FXR transactivation Fold changes by 5 μM compound” value in experiment [2] (Table 2) stood at 1.5.
On the same count and under the same terms, as for `CC1(C)C2CCC1(C)C(OC(=O)C1CCC(N)CC1)C2` (centres unmarked) [XD-21, 1,7,7-trimethyl-bicyclo[2.2.1]-heptan-2-yl 4-aminocyclo-hexane-carboxylate], the figure is 1.5.
Consider `COc1ccc(OC(=O)C23CC4CC(CC(Cl)(C4)C2)C3)cc1` [Tricyclo-[3.3.1.1^3,7]decane-1-carboxylic acid, 3-chloro-, 4-methoxyphenyl ester], for which the EC50 in experiment [1] (setting [9]) was < 1 µM; in experiment [1] (setting [10]), < 1 µM; in experiment [2] (Table 1), < 1000 nM. The fold induction at 5 µM in experiment [2] (Table 1) is > 10.
In the case of `O=C(Oc1ccc(O)cc1)C12CC3CC(CC(C3)C1)C2` [Tricyclo-[3.3.1.1^3,7]decane-1-carboxylic acid, 4-hydroxy-phenyl ester], the values for the half-maximal effective concentration (EC50) in experiment [1] (setting [9]), in experiment [1] (setting [10]) and in experiment [2] (Table 1) were < 1 µM, < 1 µM and < 1000 nM, respectively. For the same molecule, the fold induction at 5 µM in experiment [2] (Table 1) is > 10.
On to `CC1(C)C2CCC1(C)C(OC(=O)c1ccc([N+](=O)[O-])cc1)C2` (centres unmarked) [XD-14, 1,7,7-trimethyl-bicyclo[2.2.1]-heptan-2-yl 4-nitrobenzoate], for which the viability at 20 µM was 83% in experiment [3]; 60 ± 3% in experiment [4]; 90 ± 1% in experiment [5]; 64 ± 4% in experiment [6]; 91 ± 7% in experiment [7]. The viability at 40 µM in experiment [3] came to 77 ± 1%; in experiment [4] it was 42 ± 3%; in experiment [5] it was 80 ± 5%; in experiment [6] it was 58 ± 4%; in experiment [7], 84 ± 2%. The “Serum ALP (U/L)” value in experiment [8] (vehicle 129 ± 15) was 86 ± 20^a U/L. For the same molecule, in experiment [8] (vehicle 377 ± 48, Table 17), the “Serum ALT (U/L)” value is 62 ± 11^c U/L. For the same molecule, in experiment [2] (Table 2), the “Cell-based FXR transactivation Fold changes by 5 μM compound” value is 3. In experiment [2] (Table 2), this molecule came in with an EC50 of 1000 to 10000 nM.
